According to patent US10426824B1, “Compositions and methods of identifying tumor specific neoantigens” (The General Hospital Corporation, priority 2010, dated 2019):

Experiments:
[1] = system: HLA-A*68; assay: Competitive MHC binding assay, A3 supertype member; set-up: species or system human; settings: A3 supertype family member
[2] = target: HLA-A3 (Homo sapiens, UniProt P04439); assay: Competitive MHC binding assay, test peptide versus reference peptide; settings: HLA-A3, stronger binding of mutant
[3] = system: CD8+ T cells; assay: T cell reactivity against BCR-ABL E255K peptide (IFNgamma secretion, tetramer, Luminex); assay type: cell-based, human

`CC(C)[C@H](NC(=O)CNC(=O)[C@H](CCC(=O)O)NC(=O)[C@H](Cc1ccc(O)cc1)NC(=O)[C@@H](NC(=O)[C@@H](N)CCCCN)C(C)C)C(=O)N[C@@H](Cc1c[nH]c2ccccc12)C(=O)N[C@@H](CCCCN)C(=O)N[C@@H](CCCCN)C(=O)O` [E255K-B] was tested, and the “binding to HLA-A*68” value [1] was “experimentally verified to bind”, the “HLA-binding of mutant peptide compared to parental (wildtype) peptide” value [2] was ~10 fold and the “IFNgamma secretion against peptide” value ([3]; CD8+ T cells expanded from HLA-A3+ E255K+ patient following HSCT) was “detected IFNgamma secretion”. The “endogenous processing and presentation” value ([3]; HLA-A3+ APCs transfected with E255K minigene) was “appears to be endogenously processed and presented”, the “polyfunctionality of peptide-reactive T cells” value ([3]; Luminex assay, IFNgamma-secreting, tetramer+ cells) was “polyfunctional, secreting IP10, TNFalpha and GM-CSF” and the “specificity of T cell lines, mutated versus parental peptide” value ([3]; T cell lines from a normal HLA-A3+ donor and 2 E255K+/HLA-A3+ CML patients) was “greater specificity against the mutated than the parental peptide”.
